In patent US20120213789A1, “New Molecular Target for Treatment of Cancer” (priority 2001, published 2012):

What was measured:
[1] = test system: C4-2B Metastatic Prostate Cell Line; test: UROC28/Bcl-2 label flow cytometry after SPB treatment; type: cell-based, human; conditions: for Total Bcl-2 / Total UC2BC: section UROC28/Bcl-2
Procedure: (§1) Cells were grown to 70-80% confluence at 37° C. and 5% CO2 in T-75 tissue culture plastic flasks. SPB stock solution was added to final concentrations of 0.5, 5.0, 10.0, and 25.0 mM in appropriate fresh media to the cell cultures. Cells were incubated at 37° C. and 5% CO2 for 72 hours. Attached cells were then harvested using a solution of 0.05% trypsin and 0.53 mM EDTA (Invitrogen Corp.). Attached cells were then pooled with any the detached cells and washed with PBS pH 7.2. Cell numbers and percent viability were determined using Trypan blue dye exclusion and a hemacytometer. At the time of their use in an experiment the viability was usually about 85% for untreated cells and a range of about 15-70% for treated cells, with the lower viabilities found at higher SPB concentrations (Thompson C, 1995; Cory et al., 1998; van Engeland et al., 1996).
(§2) UC28(C) is 2.14 mg/ml rabbit polyclonal aliquot directed against the inventors' UC28 patented biomarker developed by UCor R&D gene discovery program. The Antibody was produced against a twenty amino acid (AA) synthetic peptide from the predicted AA sequence (AA 21-37) UCor, Inc. 840 Research Parkway Oklahoma City, Okla. 73104.
(§3) Goat Anti-Rabbit CY5 polyclonal Fluorchrome was used as the secondary conjugate for UC28 C rabbit polyclonal antibody and a background control for UC28 C polyclonal. Vendor is Jackson ImmunoResearch Laboratories, Inc. 872 West Baltimore Pike, P.O. Box 9 West Grove, Pa. 19390.
Bc12 IgG1 kappa-FITC isomer 1 is a purified monoclonal mouse specific for Bc1-2 protein. Vendor is Dalco Corporation 6392 Via Real, Carpinteria, Calif. 93013 USA.
MsIgG1 kappa-FITC isomer 1 is a purified isotype specific control for Bc1-2 monoclonal antibody. Vendor is Dako Corporation 6392 Via Real, Carpinteria, Calif. 93013 USA.
Cytofix/Cytoperm™ ICit enables fixation and permeabilization of cells prior to staining with fluorochrome-conjugated antibodies. Vendor is BD-PharMingen, 10975 Torreyana Road, San Diego, Calif. 92121-1106.
(§4) A Coulter Elite engineered with a triple laser system was used to analyze all samples. Coulter control beads were used to align lasers for the dual label testing of cell samples. Laser alignment was required for both the Argon (488 nm line) laser and HeNe (633 nm line) laser. These alignments were performed prior to all measurements with the Argon laser (488 nm line) using fluorophores for FITC, RPE, PI and the HeNe laser (633 nm line) for the Cy5 fluorophores being used for the experiments described below. The histographs, voltage settings, gates, color compensation, and pressures were established prior to all sample processing.
(a) Tissue culture cells (MLC-SV40, LNCaP and C 4-2B) were aliquoted at concentration of 1×10^6 per teach 12×75 mm polystyrene tube. Label tubes as follows: • (i) No Antibody • (ii) Secondary GAR-CY5 polyclonal=(control for UC28 CIDGARCY5 polyclonal) vs MsIgG1-RPE (control for FAS-RPE monoclonal) • (iii) UC28 C-IDGARCY5 polyclonal vs FAS (CD45)—RPE monoclonal • (iv) SecondaryGAR-CY5 polyclonal=(control for UC28 C-IDGARCY5 polyclonal) vs MsIgG1-FITC (control for Bc12-FITC monoclonal) • (v) UC28 C-IDGARCY5 polyclonal vs Bc12-FITC monoclonal • (vi) UC28 C-IDGARCY5 Polyclonal=(single label for checking instrument after setting Coulter Elite flow cytometer for dual analysis using the three different fluorchromes.) • (vii) FAS ([…])—RPE monoclonal=(single label for checking instrument after setting Coulter Elite flow cytometer for dual analysis using the three different fluorchromes.) • (viii) Bc12-FITC monoclonal=(single label for checking instrument after setting Coulter Elite flow cytometer for dual analysis using the three different fluorchromes.)
(c) A volume of 100 μl of UC28 C rabbit polyclonal unconjugated antibody was added to the appropriately labeled tubes. All other tubes received 100 μl PBS (pH7.3) and all tubes were incubated at room temp in the dark for 1 hour. […]

[2] = test system: C4-2B Metastatic Prostate Cell Line; test: UROC28/Fas label flow cytometry after SPB treatment; type: cell-based, human; conditions: for Total Fas / Total UC2BC: section UROC28/Fas
Procedure: as §1, §2, §3
CD45 (FAS) IgG1 kappa—(R-phycoerythrin (RPE) is purified monoclonal antibody conjugated with R-phycoerythrin (RPE) that is specific for the FAS protein. Vendor is Dalco Corporation 6392 Via Real, Carpinteria, Calif. 93013 USA MsIgG1 IgG1 kappa R-phycoerythrin (RPE) conjugated goat anti-mouse immunoglobulins is used for (FAS) antibody negative control. Vendor is Dako Corporation 6392 Via Real, Carpinteria, Calif. 93013 USA.
as §4
(a) Tissue culture cells (MLC-SV40, LNCaP and C 4-2B) were aliquoted at concentration of 1×10^6 per teach 12×75 mm polystyrene tube. […]

[3] = Percent viability by Trypan blue dye exclusion after SPB treatment; type: cell-based; conditions: prostate cell lines, treated cells, SPB 0.5-25.0 mM, untreated cells about 85%
Procedure: as §1

## O=C([O-])CCCc1ccccc1.[Na+] [SPB, 4-Phenylbutyric Acid, Sodium Salt]
[1]; 5.0 mM SPB
  Total Bcl-2: 5.4%
  Total UC2BC: 96.0%
[1]; 10 mM SPB
  Total Bcl-2: 0.3%
  Total UC2BC: 93.9%
[1]; SPB, summary of Table 7
  Bc1-2 protein expression: markedly depressed
  UC28 expression: significantly up regulated
[2]; 5.0 mM SPB
  Total Fas: 3.6%
  Total UC2BC: 96.4%
[2]; 10 mM SPB
  Total Fas: 6.1%
  Total UC2BC: 94.0%
[2]; SPB, summary of Table 7
  Fas protein expression: markedly depressed
[3]
  viability at 72 h: 15 to 70%
